Patent US20210147455A1 (SHAANXI SYNTHETIC PHARMACEUTICAL CO., LTD., priority 2018, published 2021)
Values after ≈ are worked out from the molar mass of the structure shown. Like-named read-outs stand apart in the source and are kept apart here.

Assays:
[1] = Hygroscopicity study (Chinese Pharmacopoeia 2015, 9103); format: physicochemical
Experimental: Test method: • 1. A dried glass weighing bottle with stopper (having an outer diameter of 50 mm and a height of 15 mm) was placed in a thermostatic drier (a saturated ammonium chloride solution was placed on the lower part of the thermostatic drier) at an appropriate temperature of 25° C.±1° C. on the day earlier before the test, and the weight (m1) of weighing bottle was precisely weighed. • 2. An appropriate amount of test sample was taken and spread in the weighing bottle, and the thickness of the test sample was controlled to about 1 mm, and the weight (m2) was precisely weighed. • 3. The weighing bottle was opened and was placed, together with the bottle cap, under the above mentioned constant temperature and humidity condition for 24 hours. • 4. The weighing bottle was capped and precisely weighed to obtain the weight (m3).
Description of hygroscopicity characterization and delimitation of hygroscopicity weight gain: Deliquescence: enough moisture is absorbed to form a liquid. […] Slightly hygroscopic: hygroscopic weight gain is less than 2% but not less than 0.2%. Not or hardly hygroscopic: hygroscopic weight gain is less than 0.2%.

[2] = Stability experiments under 25° C.±2° C. and 65% R.H±5% R.H; conditions: 25° C./65% R.H
Excerpt: • 1. […] The results are shown in detail in the following table.

[3] = Stability experiments under 40° C.±2° C. and 75% R.H±5% R.H (accelerated test); format: physicochemical; conditions: 40° C./75% R.H
[4] = Urine sample
Experimental: (§1) The mice were purchased from Beijing Weili Tonghua Experimental Animal Technology Co., Ltd. Based on the weight, the mice were randomly divided into 5 groups, with each group including 3 animals.
(§2) Before the pharmacokinetic test, the mice were fasted for 16 hours. […] 200 μl of blood was collected at preset timepoint by jugular vein puncture after administration. For the animal group subjected to intravenous administration, blood was collected at minute 0, minute 15, minute 30, hour 1, hour 2, hour 4, hour 8 and hour 24 after administration. Urine was collected at hour 2, hour 4, hour 8, hour 12 and hour 24. The blood was collected in a sample tube containing EDTA and blood sample was immediately centrifuged at 4000 rpm at 4° C. for 5 minutes. The plasma was transferred to another sample tube and stored at minus 20° C.
(§3) The following method and apparatus were used:
(§4) Mobile phase: 100% of acetonitrile (3 mM ammonium acetate) and 100% of water (3 mM ammonium acetate) Quantitation method: internal standard method

in vivo = conditions: female, mouse, 1 mg/kg
Experimental: as §1, §2, §3, §4

[5] = background statement; cited from earlier work
[6] = day 5, High temperature of 40° C.
[7] = day 10, High temperature of 40° C.

With CC[C@@H]([C@H](C)OP(=O)(O)O)n1ncn(-c2ccc(N3CCN(c4ccc(OC[C@@H]5CO[C@@](Cn6cncn6)(c6ccc(F)cc6F)C5)cc4)CC3)cc2)c1=O [Example 1, Posaconazole Phosphate Monocholinate] the Hygroscopic weight gain ([1]; 25° C.±1° C., saturated ammonium chloride solution, 24 hours) was 0.12%, the “Conclusion (hygroscopicity)” value ([1]; after 24 hours) was “No hygroscopicity” and the “stability (conclusion in words)” value ([2]; up to month 24) was “higher than that of the compounds in Comparative examples 1˜11”. The Content ([2]; month 0) was 99.87%, the Description ([2]; month 0) was “White” and the Related substance ([2]; month 0) was 0.13%. The Content ([2]; month 3) was 99.87%, the Description ([2]; month 3) was “White” and the Related substance ([2]; month 3) was 0.13%. For the same compound, the Content ([2]; month 6) was 99.87%, the Description ([2]; month 6) was “White” and the Related substance ([2]; month 6) was 0.13%. For the same compound, the Content ([2]; month 9) was 99.85%, the Description ([2]; month 9) was “White” and the Related substance ([2]; month 9) was 0.15%. For the same compound, the Content ([2]; month 12) was 99.84%, the Description ([2]; month 12) was “White” and the Related substance ([2]; month 12) was 0.16%. The Content ([2]; month 24) was 99.80%, the Description ([2]; month 24) was “White” and the Related substance ([2]; month 24) was 0.20%. For the same compound, the Content ([3]; month 0) was 99.87%, the Description ([3]; month 0) was “White” and the Related substance ([3]; month 0) was 0.13%. The Content ([3]; month 1) was 99.87%, the Description ([3]; month 1) was “White” and the Related substance ([3]; month 1) was 0.13%. The Content ([3]; month 2) was 99.86%, the Description ([3]; month 2) was “White” and the Related substance ([3]; month 2) was 0.14%. For the same compound, the Content ([3]; month 3) was 99.85%, the Description ([3]; month 3) was “White” and the Related substance ([3]; month 3) was 0.15%. The Content ([3]; month 6) was 99.84%, the Description ([3]; month 6) was “White” and the Related substance ([3]; month 6) was 0.16%. The Content (day 0) was 99.87%, the Description (day 0) was “White” and the Related substance (day 0) was 0.13%. The Content (day 5, High humidity of 92.5%) was 99.86%, the Description (day 5, High humidity of 92.5%) was “White” and the Related substance (day 5, High humidity of 92.5%) was 0.14%. For the same compound, the Content [6] was 99.87%, the Description [6] was “White” and the Related substance [6] was 0.13%. For the same compound, the Content (day 5, Illumination of 4500LX) was 99.87%, the Description (day 5, Illumination of 4500LX) was “White” and the Related substance (day 5, Illumination of 4500LX) was 0.13%. For the same compound, the Content (day 10, High humidity of 92.5%) was 99.86%, the Description (day 10, High humidity of 92.5%) was “White” and the Related substance (day 10, High humidity of 92.5%) was 0.14%. For the same compound, the Content [7] was 99.85%, the Description [7] was “White” and the Related substance [7] was 0.15%. The Content (day 10, Illumination of 4500LX) was 99.86%, the Description (day 10, Illumination of 4500LX) was “White” and the Related substance (day 10, Illumination of 4500LX) was 0.14%. The “Concentration of the compound in Example 1” value (“Concentration of the compound” for short) ([4]; 0~2 h, 1 mg/kg intravenous) was 149.1 ng/mL, the “Concentration of the compound” value ([4]; 2~4 h) was 641.6 ng/mL and the “Concentration of the compound” value ([4]; 4~8 h) was 973.0 ng/mL. For the same compound, the “Concentration of the compound” value ([4]; 8~12 h) was 716.5 ng/mL, the “Concentration of the compound” value ([4]; 12~24 h) was 400.9 ng/mL and the concentration at 0.25 h (in vivo; plasma, iv) was 5560 ng/mL. The concentration at 0.5 h (in vivo; plasma, iv) was 7040 ng/mL, the concentration at 1 h (in vivo; plasma, iv) was 7630 ng/mL and the concentration at 2 h (in vivo; plasma, iv) was 8270 ng/mL. It also gave a concentration at 4 h (in vivo; plasma, iv) of 7520 ng/mL, a concentration at 8 h (in vivo; plasma, iv) of 7780 ng/mL and a concentration at 24 h (in vivo; plasma, iv) of 7920 ng/mL. For the same compound, the concentration at 24 h (in vivo; urine, intravenous) was 0 ng/mL, the solubility (Solubility study; organic solvent or mixture, Solubility, Methanol, in methanol) was 35000 µg/mL and the solubility (Solubility study; water, Solubility, in water) was 82000 µg/mL.

Compound CC[C@@H]([C@H](C)O)n1ncn(-c2ccc(N3CCN(c4ccc(OC[C@@H]5CO[C@@](Cn6cncn6)(c6ccc(F)cc6F)C5)cc4)CC3)cc2)c1=O [Posaconazole] has a solubility (Solubility study; isopropanol, organic solvent or mixture) of 100 µg/mL (≈ 143 µM), a solubility (Solubility study; methanol, organic solvent or mixture) of 60 µg/mL (≈ 85.6 µM) and a solubility (Solubility study; water) of 50 µg/mL (≈ 71.3 µM).

In the case of sulfobutyl ether-β-cyclodextrin, the preclinical toxicology finding [5] is given as “causes vacuolization of the urothelial cells and activation of the macrophages in the liver and lung”.
